Entries after “also recorded” stand apart in the source; their conditions may differ.
Tested on: influenza A/PR/8/34
Set-up: species or system C57/BL6 mice
Conditions: mouse, in vivo

## CN[C@H]1CC[C@@H](c2ccc(Cl)c(Cl)c2)c2ccccc21 [Sertraline]
  survival rate, result in words: dose dependant increase in survival rate; also recorded: improves survival rate

From patent US20100081713A1, “COMPOSITIONS AND METHODS FOR TREATING VIRAL INFECTIONS” (priority 2008, published 2010)
